# Measured values reported in US20030224942A1, “Alkylamino-1,3,5-triazines, processes for their preparation and their use as herbicides and plant growth regulators” (priority 2001, published 2003).
# Assays:
# [1] = tested on: Cyperus spp., Echinochloa spp., Digitaria spp., Sagitaria spp. and Scirpus spp.; assay: Action on harmful plants in rice (paddy rice conditions, visual scoring); type: in vivo, typical rice weeds (gramineous and broad-leaved); conditions: applied into the dammed water, visual scoring about three weeks after application
# Method in brief: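 Under paddy conditions with 2-3 cm dammed water, transplanted and sown rice plus weeds were treated at three-leaf stage (E. crus-galli at 1.5 leaves). Pots stayed in greenhouse under optimum growth conditions for the test period, with visual assessment of damage.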
# [2] = tested on: Chenopodium spp., Papaver spp., Polygonum spp., Veronica spp. or Viola spp.; assay: Post-emergence effect on weeds (greenhouse pot test, visual scoring); type: in vivo, monocotyledonous and dicotyledonous weeds; conditions: treated at three-leaf stage; visual scoring after about 3 to 4 weeks; application rate of 0.5 kg and less of active substance per hectare
SMILES,herbicidal activity against harmful plants which are typical for rice crops [1],herbicidal activity post-emergence against harmful plants [2]
C#Cc1cccc(C(C)Nc2nc(N)nc(C(C)C)n2)c1 (centres unmarked) [Product P12.1579],very good herbicidal activity,very good herbicidal activity
CC(C)(F)c1nc(N)nc(NC(c2ccc(C3CC3)cc2)C2CC2)n1 (centres unmarked) [Product P19.1604],very good herbicidal activity,very good herbicidal activity
Cc1nc(N)nc(NC(C)c2ccc(F)c(C3CC3)c2)n1 (centres unmarked) [Product P2.916],very good herbicidal activity,very good herbicidal activity
CC#Cc1cc(CNc2nc(N)nc(C(C)(C)F)n2)ccc1F [Product P16.384],very good herbicidal activity,very good herbicidal activity
C#Cc1cccc(CNc2nc(N)nc(C(C)F)n2)c1 (centres unmarked) [Product P21.1579],very good herbicidal activity,very good herbicidal activity
CC(C)c1nc(N)nc(NC(C)c2ccc(F)c(C3CC3)c2)n1 (centres unmarked) [Product P12.916],very good herbicidal activity,very good herbicidal activity
CCc1nc(N)nc(NC(C)c2cccc(C(F)=C(F)F)c2)n1 (centres unmarked) [Product P7.1567],very good herbicidal activity,very good herbicidal activity
CCc1nc(N)nc(NCc2ccc(F)c(C(F)=C(F)F)c2)n1 [Product P6.5],very good herbicidal activity,very good herbicidal activity
C#Cc1cccc(C(C)Nc2nc(C)nc(N)n2)c1 (centres unmarked) [Product P2.1579],very good herbicidal activity,very good herbicidal activity
CC#Cc1ccc(C(Nc2nc(N)nc(CC)n2)C2CC2)cc1 (centres unmarked) [Product P9.1583],very good herbicidal activity,very good herbicidal activity
CC#Cc1cc(CNc2nc(N)nc(CC)n2)ccc1F [Product P6.384],very good herbicidal activity,very good herbicidal activity
C#Cc1cc(CNc2nc(N)nc(C(C)F)n2)ccc1F (centres unmarked) [Product P21.309],very good herbicidal activity,very good herbicidal activity
CC#Cc1cccc(C(Nc2nc(N)nc(C(C)C)n2)C2CC2)c1 (centres unmarked) [Product P14.1582],very good herbicidal activity,very good herbicidal activity
CC#Cc1cc(C(Nc2nc(N)nc(C(F)CC)n2)C2CC2)ccc1F (centres unmarked) [Product P29.384],very good herbicidal activity,very good herbicidal activity
C#Cc1cc(C(Nc2nc(N)nc(CC)n2)C2CC2)ccc1F (centres unmarked) [Product P9.309],very good herbicidal activity,very good herbicidal activity
CC#Cc1c(F)cc(C(C)Nc2nc(N)nc(C(C)F)n2)cc1F (centres unmarked) [Product P22.428],very good herbicidal activity,very good herbicidal activity

SMILES,herbicidal activity against harmful plants which are typical for rice crops [1],herbicidal activity post-emergence against harmful plants [2]
CC(C)c1nc(N)nc(NC(C)c2cccc(C3CC3)c2)n1 (centres unmarked) [Product P12.1603],very good herbicidal activity,very good herbicidal activity
CC(C)(F)c1nc(N)nc(NC(c2ccc(C(F)=C(F)F)cc2)C2CC2)n1 (centres unmarked) [Product P19.1568],very good herbicidal activity,very good herbicidal activity
C#Cc1cccc(C(C)Nc2nc(N)nc(CC)n2)c1 (centres unmarked) [Product P7.1579],very good herbicidal activity,very good herbicidal activity
CC(F)c1nc(N)nc(NCc2cc(F)c(C(F)=C(F)F)c(F)c2)n1 (centres unmarked) [Product P21.49],very good herbicidal activity,very good herbicidal activity
CC#Cc1cccc(CNc2nc(N)nc(CC)n2)c1 [Product P6.1582],very good herbicidal activity,very good herbicidal activity
CCc1nc(N)nc(NCc2ccc(F)c(C3CC3)c2)n1 [Product P6.916],very good herbicidal activity,very good herbicidal activity
CC#Cc1cc(CNc2nc(C)nc(N)n2)ccc1F [Product P1.384],very good herbicidal activity,very good herbicidal activity
Cc1nc(N)nc(NCc2cccc(C3CC3)c2)n1 [Product P1.1603],very good herbicidal activity,very good herbicidal activity
C#Cc1ccc(C(Nc2nc(N)nc(CC)n2)C2CC2)cc1 (centres unmarked) [Product P9.1580],very good herbicidal activity,very good herbicidal activity
CCCCC#Cc1cc(C(C)Nc2nc(N)nc(C(C)F)n2)ccc1F (centres unmarked) [Product P22.688],very good herbicidal activity,very good herbicidal activity
CC(C)c1nc(N)nc(NC(C)c2cccc(C(F)=C(F)F)c2)n1 (centres unmarked) [Product P12.1567],very good herbicidal activity,very good herbicidal activity
CC#Cc1ccc(C(Nc2nc(C)nc(N)n2)C2CC2)cc1 (centres unmarked) [Product P4.1583],very good herbicidal activity,very good herbicidal activity
CC(F)c1nc(N)nc(NC(c2ccc(C(F)=C(F)F)cc2)C2CC2)n1 (centres unmarked) [Product P24.1568],very good herbicidal activity,very good herbicidal activity
CC#Cc1ccc(CNc2nc(N)nc(C(C)F)n2)cc1 (centres unmarked) [Product P21.1583],very good herbicidal activity,very good herbicidal activity
Cc1nc(N)nc(NC(C)c2cccc(C3CC3)c2)n1 (centres unmarked) [Product P2.1603],very good herbicidal activity,very good herbicidal activity
